Measured values taken from ChEMBL document CHEMBL1150784, “Multicopy blaOXA-58 gene as a source of high-level resistance to carbapenems in Acinetobacter baumannii” (2007).
In brackets after ≈: the same amount, converted by molar mass.

Tests used:
Acinetobacter baumannii [1] = test: Antimicrobial activity against carbapenem-resistant Acinetobacter baumannii BM4547 by agar dilution method; format: functional
Acinetobacter baumannii [2] = test: Antimicrobial activity against carbapenem-resistant Acinetobacter baumannii T183 isolate carrying one bla-OXA58 gene copy by agar dilution method; format: functional
Acinetobacter baumannii [3] = test: Antimicrobial activity against carbapenem-resistant Acinetobacter baumannii T193 isolate carrying two bla-OXA58 gene copies by agar dilution method; format: functional
Acinetobacter baumannii [4] = test: Antimicrobial activity against carbapenem-resistant Acinetobacter baumannii T186 isolate carrying three bla-OXA58 gene copies by agar dilution method; format: functional
[5] = biological target: Beta-lactamase OXA-58 (Acinetobacter baumannii) (UniProt Q2TR58); test: Activity of Acinetobacter baumannii […] OXA58 assessed as hydrolytic specific activity per mg of protein
Sequence of Beta-lactamase OXA-58 (Acinetobacter baumannii) (Q2TR58 whole entry): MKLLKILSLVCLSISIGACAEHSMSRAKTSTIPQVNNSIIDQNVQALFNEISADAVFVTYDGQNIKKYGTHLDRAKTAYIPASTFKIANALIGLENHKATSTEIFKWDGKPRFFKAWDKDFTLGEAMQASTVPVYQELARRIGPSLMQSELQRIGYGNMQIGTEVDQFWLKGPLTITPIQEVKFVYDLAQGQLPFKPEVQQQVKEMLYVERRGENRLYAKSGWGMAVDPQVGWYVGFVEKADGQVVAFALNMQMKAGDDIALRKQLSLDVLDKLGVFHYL

[6] = biological target: Beta-lactamase OXA-58 (Acinetobacter baumannii) (UniProt Q2TR58); test: Activity of OXA58 from Acinetobacter baumannii 183 isolate carrying one bla-OXA58 gene copy assessed as hydrolytic specific activity per mg of protein
[7] = biological target: Beta-lactamase OXA-58 (Acinetobacter baumannii) (UniProt Q2TR58); test: Activity of OXA58 from Acinetobacter baumannii 193 isolate carrying two bla-OXA58 gene copy assessed as hydrolytic specific activity per mg of protein
Acinetobacter baumannii [8] = test: Antimicrobial activity against carbapenem-resistant Acinetobacter baumannii 183 isolate carrying one bla-OXA58 gene copy by agar dilution method; format: functional
Acinetobacter baumannii [9] = test: Antimicrobial activity against carbapenem-resistant Acinetobacter baumannii 193 isolate carrying two bla-OXA58 gene copies by agar dilution method; format: functional
Klebsiella pneumoniae = test: Antimicrobial activity against Klebsiella pneumoniae isolate expressing VIM1 gene; format: functional
[10] = biological target: Beta-lactamase OXA-58 (Acinetobacter baumannii) (UniProt Q2TR58); test: Activity of OXA58 from Acinetobacter baumannii T183 isolate carrying one bla-OXA58 gene copy assessed as hydrolytic specific activity per mg of protein
[11] = biological target: Beta-lactamase OXA-58 (Acinetobacter baumannii) (UniProt Q2TR58); test: Activity of OXA58 from Acinetobacter baumannii T193 isolate carrying two bla-OXA58 gene copy assessed as hydrolytic specific activity per mg of protein
[12] = biological target: Beta-lactamase OXA-58 (Acinetobacter baumannii) (UniProt Q2TR58); test: Activity of OXA58 from Acinetobacter baumannii 186 isolate carrying three bla-OXA58 gene copy assessed as hydrolytic specific activity per mg of protein
[13] = biological target: Beta-lactamase OXA-58 (Acinetobacter baumannii) (UniProt Q2TR58); test: Activity of OXA58 from Acinetobacter baumannii T186 isolate carrying three bla-OXA58 gene copy assessed as hydrolytic specific activity per mg of protein
Acinetobacter baumannii [14] = test: Antimicrobial activity against carbapenem-resistant Acinetobacter baumannii 186 isolate carrying three bla-OXA58 gene copies by agar dilution method; format: functional

SMILES | MIC (Acinetobacter baumannii [1]) | MIC (Acinetobacter baumannii [2]) | MIC (Acinetobacter baumannii [3]) | MIC (Acinetobacter baumannii [4]) | Activity [5] | Activity [6] | Activity [7] | MIC (Acinetobacter baumannii [8]) | MIC (Acinetobacter baumannii [9]) | MIC (Klebsiella pneumoniae) | Activity [10] | Activity [11] | Activity [12] | Activity [13] | MIC (Acinetobacter baumannii [14])
CC(C)(O/N=C(\C(=O)N[C@@H]1C(=O)N2C(C(=O)[O-])=C(C[n+]3ccccc3)CS[C@H]12)c1csc(N)n1)C(=O)O [CEFTAZIDIME] | 4 µg/mL (≈ 7.32 µM) | 8 µg/mL (≈ 14.6 µM) | 8 µg/mL (≈ 14.6 µM) | 8 µg/mL (≈ 14.6 µM) | < 0.01 U/mg | 0.075 U/mg | 0.077 U/mg | – | – | – | – | – | – | – | –
C[C@@H](O)[C@H]1C(=O)N2C(C(=O)O)=C(SCCNC=N)C[C@H]12 [IMIPENEM ANHYDROUS] | 0.5 µg/mL (≈ 1.67 µM) | 6 µg/mL (≈ 20 µM) | 16 µg/mL (≈ 53.4 µM) | 64 µg/mL (≈ 214 µM) | < 0.01 U/mg | 0.165 U/mg | 0.227 U/mg | 16 µg/mL (≈ 53.4 µM) | 32 µg/mL (≈ 107 µM) | 2 µg/mL (≈ 6.68 µM) | 0.303 U/mg | 0.365 U/mg | 0.27 U/mg | 0.388 U/mg | –
C[C@@H](O)[C@H]1C(=O)N2C(C(=O)O)=C(S[C@@H]3CN[C@H](C(=O)N(C)C)C3)[C@H](C)[C@H]12 [MEROPENEM] | 0.5 µg/mL (≈ 1.3 µM) | 3 µg/mL (≈ 7.82 µM) | 4 µg/mL (≈ 10.4 µM) | 8 µg/mL (≈ 20.9 µM) | – | – | – | 4 µg/mL (≈ 10.4 µM) | 8 µg/mL (≈ 20.9 µM) | – | – | – | – | – | 12 µg/mL (≈ 31.3 µM)
